Patent publication US20240156790A1, “COMPOUNDS, COMPOSITIONS, AND METHODS FOR MODULATING FERROPTOSIS AND TREATING EXCITOTOXIC DISORDERS” (THE TRUSTEES OF COLUMBIA UNIVERSITY IN THE CITY OF NEW YORK, priority 2018, published 2024)
Where two headings read alike, the source gives them in different places.

Tests used:
[1] = Microsomal stability, mouse liver microsomes (Table 1); assay type: in vitro ADME, Mouse: CD1; details: CD1, mouse, liver microsomes, Mouse: CD1; read-out: Microsomal Stability t1/2
Procedure: Each compound (1 μM) is incubated with mouse plasma, for 4 hours at 37° C., with shaking at 100 rpm. The concentration of compound in the buffer and plasma chambers is determined using LC-MS/MS. Metabolism of each compound is predicted using Sites of Metabolism (Schrodinger Suite), which combines intrinsic reactivity analysis (Hammett-Taft) with induced fit docking against 2C9, 2D6 and 3A4. This approach identifies 90% of known metabolism sites and has a false positive rate of 17%. The in vitro metabolic stability of each compound in mouse liver microsomes is determined. Pooled mouse liver microsomes are prepared and stored at −80° C. until needed. […]

[2] = Mouse; value marked ^1, Hofmans et al., 2016; cited from earlier work
[3] = Microsomal stability, dog (Table 1); assay type: in vitro ADME; details: Dog: Beagle
Procedure: Each compound (1 μM) is incubated with mouse plasma, for 4 hours at 37° C., with shaking at 100 rpm. The concentration of compound in the buffer and plasma chambers is determined using LC-MS/MS. Metabolism of each compound is predicted using Sites of Metabolism (Schrodinger Suite), which combines intrinsic reactivity analysis (Hammett-Taft) with induced fit docking against 2C9, 2D6 and 3A4. This approach identifies 90% of known metabolism sites and has a false positive rate of 17%. The in vitro metabolic stability of each compound in mouse liver microsomes is determined. Pooled mouse liver microsomes are prepared and stored at −80° C. until needed. Compound stability in liver microsomes is measured at 0, 15, 30, 45 and 60 minutes in duplicate, using LC-MS/MS analysis.

[4] = Microsomal stability, human liver microsomes (Table 1); assay type: in vitro ADME; details: liver microsomes; Human: Pooled, 50 donors; read-out: Microsomal Stability t1/2 (converted)
[5] = Human; value marked ^1, Hofmans et al., 2016; cited from earlier work
[6] = Plasma stability, rat (Table 1); assay type: in vitro ADME

Structure (SMILES): CCOC(=O)c1ccc(NC2CCCCC2)c(N)c1 [Fer-1, Ferrostatin-1, reference compound]
- half-life [1]: 2.4 min
- Microsomal Stability t1/2 [2]: 1.9 ± 0.6 min
- Microsomal Stability, % remaining t = 120 [3]: 49.5 ± 9.6%
- half-life [4]: 11.4 min
- Microsomal Stability t1/2 [5]: 6.9 ± 0.2 min
- Plasma Stability at six hours (% remaining) [6]: 0-4%
